“Also recorded” adds a separate entry of the source. Counter-ions that a name gives are not always drawn.
How the values were obtained:
[1] = system: cerebellar granular cells; assay: L-dopa toxicity in primary cultures of cerebellar granular cells, viability by 14C-aminoisobutyric acid uptake; type: cell-based, Sprague Dawley rats; settings: for % of control* (viability, radioactivity): mean of triplicates +/- S.D.
Method: Primary cultures of cerebellar granular cells were prepared from 8-day-old Sprague Dawley rats (Charles River, Portage, Mich.) as described previously (1). […] Glial cell proliferation was prevented by adding cytosine-arabinofuranoside-monophosphate (Sigma, St. […] Experiments were started after cells were 8 days in vitro (8 DIV). Cells were washed with two ml of serum free growth medium. Concentrations of 100X stock solutions of PPX and the (+) enantiomer in serum free growth medium were made. These were delivered to cells by adding 20 ul to cells in growth medium per well. […] Cells were incubated under the above conditions for 24 hrs. […] Cells were solubilized, following a wash, with 0.5% Triton X-100. The solubilized cells were then counted for radioactivity on a scintillation counter. Data was expressed as the mean of triplicates ±S.D. for each point.

dopaminergic receptors = assay: Battery of binding assays, dopaminergic receptors
[2] = system: rat model of cerebral infarction; settings: administered before the event; cited from earlier work
[3] = system: gerbil model of global cerebral ischemia; settings: in vivo; cited from earlier work
[4] = system: nigrostriatal dopamine neurons
Method: We examined histologically retrograde degeneration of the dopaminergic nigrostriatal (NS) tract over 28 days in gerbils subjected to a 10-minute period of forebrain ischemia via bilateral carotid occlusion.
The administration of pramipexole was via an initial dose of 1 mg/kg PO 60 minutes after ischemia and again at the end of day 1 followed by twice daily dosing for the next 26 days.

For `CCCNC1CCc2nc(N)sc2C1.Cl.Cl` (single isomer, unassigned; (+)) [(+) enantiomer, (+)-enantiomer of 2-amino-6-n-propylamino-4,5,6,7-tetrahydrobenzothiazole dihydrochloride], the “binding activity (in words)” value (serotonergic receptors) was “inactive”, the “viability measurements versus control cells (in words)” value ([1]; 10 uM compound, L-dopa treated cells) was “equal to control cells not exposed to L-dopa” and the “neuroprotection against L-dopa toxicity (in words)” value ([1]; cerebellar granule cells in culture, dihydrochloride) was “blocked L-dopa toxicity; also recorded: equally as potent and effective compared to pramipexole”. For the same compound, the “binding activity (in words)” value (adrenergic receptors) was “inactive” and the “binding activity (in words)” value (dopaminergic receptors) was “less active”.

In the case of `N[C@@H](Cc1ccc(O)c(O)c1)C(=O)O` [L-dopa, reference compound], the “Toxicity of L-dopa” value ([1]; 100 uM L-dopa, 24 hrs) is reported as 64.8%.

For `CCN(CC)C(=O)N[C@H]1C=C2c3cccc4[nH]cc(c34)C[C@H]2N(C)C1` [Lisuride], the brain edema [2] is listed as “reduced” and the survival time [2] is listed as “prolonged”.

In the case of `c1cnc(N2CCN(Cc3ccc4c(c3)OCO4)CC2)nc1` [Piribedil], the “functional and biochemical parameters” value [3] is listed as “have an effect”.

In the case of `CCCN[C@H]1CCc2nc(N)sc2C1` [Pramipexole, (−)-enantiomer of 2-amino-6-n-propylamino-4,5,6,7-tetrahydrobenzothiazole-dihydrochloride], the “attenuation of 28-day post-ischemic loss of NS DA neurons” value ([4]; Example 1, 1 mg/kg PO BID beginning at 1 hr after insult, p<0.01 vs vehicle-treated) is reported as 36%, the “increase in nigrostriatal dopamine neurons compared to vehicle” value ([4]; Example 2, twice daily dose of 0.3 mg/kg, threshold effect) is reported as 14% and the “improvement in 28 day post-ischemic dopamine neuronal survival” value ([4]; Example 2, twice daily dose of 1 mg/kg PO, p<0.0001 vs vehicle-treated) is reported as 38%. The “% of control* (viability, radioactivity)” value ([1]; 1 nM compound, 100 uM L-dopa, 24 hrs) was 30.0 +/− 6.5 % of control, the “% of control* (viability, radioactivity)” value ([1]; 10 nM compound, 100 uM L-dopa, 24 hrs) was 39.2 +/− 9.4 % of control and the “% of control* (viability, radioactivity)” value ([1]; 100 nM compound, 100 uM L-dopa, 24 hrs) was 64.8 +/− 4.7 % of control. For the same compound, the “% of control* (viability, radioactivity)” value ([1]; 300 nM compound, 100 uM L-dopa, 24 hrs) was 76.2 +/− 7.3 % of control, the “% of control* (viability, radioactivity)” value ([1]; 1000 nM compound, 100 uM L-dopa, 24 hrs) was 65.5 +/− 14.8 % of control and the “% of control* (viability, radioactivity)” value ([1]; 3000 nM compound, 100 uM L-dopa, 24 hrs) was 84.9 +/− 0.6 % of control. The “% of control* (viability, radioactivity)” value ([1]; 10000 nM compound, 100 uM L-dopa, 24 hrs) was 90.0 +/− 11.5 % of control and the EC50 ([1]; Rattus norvegicus, cerebellar granule cells in culture, L-dopa, read-out: EC50 for blocking L-dopa toxicity) was 300 to 1000 nM.
